Data: patent US9695155B2, “Herbicidal substituted pyrimidinyloxy benzene compounds” (E. I. DU PONT DE NEMOURS AND COMPANY, priority 2013, dated 2017)

Tests used:
[1] = test system: morningglory; assay: Test A postemergence; assay type: in vivo, Ipomoea spp.
Summary of the method: (§1)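 Scoring: eye-based comparison with untreated controls, 0 for no effect through 100 for complete control, at about day 10. Treatments: directed soil spray preemergence; foliar spray postemergence on 2–10 cm plants at the one- to two-leaf stage. Medium: loam soil with sand.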

[2] = test system: wheat; assay: Test A postemergence; assay type: in vivo, Triticum aestivum
Summary of the method: as §1

[3] = test system: wheat; assay: Test A preemergence; assay type: in vivo, Triticum aestivum
Summary of the method: as §1

[4] = test system: blackgrass; assay: Test C preemergence; assay type: in vivo, Alopecurus myosuroides
Summary of the method: (§2)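 Rated visually on 0–100 (100 = complete control) after 13–15 days under glass. Treatments went onto freshly seeded loam/sand soil or onto emerged plants at the 1- to 4-leaf stage, using a surfactant-containing solvent formulation.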

[5] = test system: johnsongrass; assay: Test C preemergence; assay type: in vivo, Sorghum halepense
Summary of the method: as §2

[6] = test system: pigweed; assay: Test C postemergence; assay type: in vivo, Amaranthus retroflexus
Summary of the method: as §2

[7] = test system: Heteranthera limosa; assay: Test B flooded paddy test; assay type: in vivo; settings: Flood, 250 g ai/ha, 0 to 100 scale where 0 is no effect and 100 is complete control
Summary of the method: (§3)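 Post-emergence paddy-water application at the 2-leaf stage, with 3 cm flood kept for the whole test. Response was judged visually relative to controls after 13 to 15 greenhouse days, 0 indicating no effect and 100 complete control.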

[8] = test system: Italian ryegrass; assay: Test C preemergence; assay type: in vivo, Lolium multiflorum
Summary of the method: as §2

[9] = test system: morningglory; assay: Test A preemergence; assay type: in vivo, Ipomoea spp.
Summary of the method: as §1

[10] = test system: sedge, umbrella; assay: Test B flooded paddy test; assay type: in vivo, Cyperus difformis; settings: Flood, 250 g ai/ha, 0 to 100 scale where 0 is no effect and 100 is complete control
Summary of the method: as §3

[11] = test system: ragweed; assay: Test C preemergence; assay type: in vivo, Ambrosia elatior
Summary of the method: as §2

[12] = test system: wheat, winter; assay: Test C preemergence; assay type: in vivo, Triticum aestivum
Summary of the method: as §2

[13] = test system: velvetleaf; assay: Test A postemergence; assay type: in vivo, Abutilon theophrasti
Summary of the method: as §1

[14] = test system: velvetleaf; assay: Test A preemergence; assay type: in vivo, Abutilon theophrasti
Summary of the method: as §1

[15] = test system: velvetleaf; assay: Test C preemergence; assay type: in vivo, Abutilon theophrasti
Summary of the method: as §2

[16] = 125 g ai/ha, 0 to 100 scale where 0 is no effect and 100 is complete control
[17] = 500 g ai/ha, 0 to 100 scale, 0 no effect, 100 complete control
[18] = 500 g ai/ha, 0 to 100 scale, 0 no effect, 100 complete control, approx. 10 days
[19] = 62 g ai/ha, preemergence, scale 0 (no effect) to 100 (complete control)
[20] = 125 g ai/ha, preemergence, scale 0 (no effect) to 100 (complete control)
[21] = 250 g ai/ha, preemergence, scale 0 (no effect) to 100 (complete control)
[22] = Preemergence, 31 g ai/ha, scale 0 to 100, 0 no effect, 100 complete control

Clc1cnc(Oc2ccccc2-n2cc(Br)cn2)nc1 [Compound 7, 2-[2-(4-bromo-1H-pyrazol-1-yl)phenoxy]-5-chloropyrimidine]
10%: pest or weed control at 62 g/ha ([4]; Alopecurus myosuroides, pre-emergence, 62 g ai/ha, preemergence, scale 0 (no effect) to 100 (complete control), read-out: Blackgrass plant response rating) | pest or weed control at 125 g/ha ([5]; Sorghum halepense, pre-emergence, 125 g ai/ha, preemergence, scale 0 (no effect) to 100 (complete control), read-out: Johnsongrass plant response rating) | plant injury at 125 g/ha ([12]; Triticum aestivum, pre-emergence, 125 g ai/ha, preemergence, scale 0 (no effect) to 100 (complete control), read-out: Wheat plant response rating)
50%: plant injury at 500 g/ha ([2]; Triticum aestivum, post-emergence, 240 h, 500 g ai/ha, 0 to 100 scale, 0 no effect, 100 complete control, read-out: Plant response rating Wheat) | pest or weed control at 125 g/ha ([4]; Alopecurus myosuroides, pre-emergence, 125 g ai/ha, preemergence, scale 0 (no effect) to 100 (complete control), read-out: Blackgrass plant response rating)
100%: pest or weed control at 500 g/ha ([1]; Ipomoea, post-emergence, 240 h, 500 g ai/ha, 0 to 100 scale, 0 no effect, 100 complete control, read-out: Plant response rating Morningglory) | pest or weed control at 125 g/ha ([6]; Amaranthus retroflexus, post-emergence, 125 g ai/ha, postemergence, read-out: Plant response rating (0 to 100), Pigweed) | pest or weed control at 250 g/ha ([6]; Amaranthus retroflexus, post-emergence, 250 g ai/ha, postemergence, read-out: Plant response rating (0 to 100), Pigweed) | pest or weed control at 31 g/ha ([6]; Amaranthus retroflexus, post-emergence, Postemergence, 31 g ai/ha, scale 0 to 100 (0 no effect, 100 complete control), 13 to 15 days, read-out: Plant response rating, Pigweed) | pest or weed control at 62 g/ha ([6]; Amaranthus retroflexus, post-emergence, Postemergence, 62 g ai/ha, scale 0 to 100 (0 no effect, 100 complete control), read-out: Plant response rating, Pigweed) | pest or weed control at 125 g/ha ([13]; Abutilon theophrasti, post-emergence, 240 h, 125 g ai/ha, 0 to 100 scale where 0 is no effect and 100 is complete control, read-out: Plant response rating, Velvetleaf) | pest or weed control at 500 g/ha ([13]; Abutilon theophrasti, post-emergence, 240 h, 500 g ai/ha, 0 to 100 scale, 0 no effect, 100 complete control, read-out: Plant response rating Velvetleaf) | pest or weed control at 125 g/ha ([14]; Abutilon theophrasti, pre-emergence, 240 h, 125 g ai/ha, 0 to 100 scale where 0 is no effect and 100 is complete control, read-out: Velvetleaf plant response rating) | pest or weed control at 500 g/ha ([14]; Abutilon theophrasti, pre-emergence, 240 h, 500 g ai/ha, 0 to 100 scale, 0 no effect, 100 complete control, approx. 10 days, read-out: Velvetleaf plant response rating) | pest or weed control at 62 g/ha ([15]; Abutilon theophrasti, pre-emergence, 62 g ai/ha, preemergence, scale 0 (no effect) to 100 (complete control), read-out: Velvetleaf plant response rating) | pest or weed control at 125 g/ha ([15]; Abutilon theophrasti, pre-emergence, 125 g ai/ha, preemergence, scale 0 (no effect) to 100 (complete control), read-out: Velvetleaf plant response rating) | pest or weed control at 250 g/ha ([15]; Abutilon theophrasti, pre-emergence, 250 g ai/ha, preemergence, scale 0 (no effect) to 100 (complete control), read-out: Velvetleaf plant response rating)
0%: plant injury at 125 g/ha ([3]; Triticum aestivum, pre-emergence, 240 h, 125 g ai/ha, 0 to 100 scale where 0 is no effect and 100 is complete control, read-out: Wheat plant response rating) | pest or weed control at 31 g/ha ([5]; Sorghum halepense, pre-emergence, Preemergence, 31 g ai/ha, scale 0 to 100, 0 no effect, 100 complete control, read-out: Plant response rating, Johnsongrass) | pest or weed control at 62 g/ha ([8]; Lolium multiflorum, pre-emergence, 62 g ai/ha, preemergence, scale 0 (no effect) to 100 (complete control), read-out: Ryegrass, Italian plant response rating) | pest or weed control at 31 g/ha ([8]; Lolium multiflorum, pre-emergence, Preemergence, 31 g ai/ha, scale 0 to 100, 0 no effect, 100 complete control, read-out: Plant response rating, Ryegrass, Italian) | pest or weed control at 62 g/ha ([11]; Ambrosia artemisiifolia, pre-emergence, 62 g ai/ha, preemergence, scale 0 (no effect) to 100 (complete control), read-out: Ragweed plant response rating) | pest or weed control at 31 g/ha ([11]; Ambrosia artemisiifolia, pre-emergence, Preemergence, 31 g ai/ha, scale 0 to 100, 0 no effect, 100 complete control, read-out: Plant response rating, Ragweed) | plant injury at 31 g/ha ([12]; Triticum aestivum, pre-emergence, Preemergence, 31 g ai/ha, scale 0 to 100, 0 no effect, 100 complete control, read-out: Plant response rating, Wheat)
20%: plant injury at 500 g/ha ([3]; Triticum aestivum, pre-emergence, 240 h, 500 g ai/ha, 0 to 100 scale, 0 no effect, 100 complete control, approx. 10 days, read-out: Wheat plant response rating) | pest or weed control at 125 g/ha ([9]; Ipomoea, pre-emergence, 240 h, 125 g ai/ha, 0 to 100 scale where 0 is no effect and 100 is complete control, read-out: Morningglory plant response rating)
30%: plant injury at 125 g/ha ([2]; Triticum aestivum, post-emergence, 240 h, 125 g ai/ha, 0 to 100 scale where 0 is no effect and 100 is complete control, read-out: Plant response rating, Wheat)
5%: pest or weed control at 31 g/ha ([4]; Alopecurus myosuroides, pre-emergence, Preemergence, 31 g ai/ha, scale 0 to 100, 0 no effect, 100 complete control, read-out: Plant response rating, Blackgrass) | pest or weed control at 62 g/ha ([5]; Sorghum halepense, pre-emergence, 62 g ai/ha, preemergence, scale 0 (no effect) to 100 (complete control), read-out: Johnsongrass plant response rating) | pest or weed control at 125 g/ha ([8]; Lolium multiflorum, pre-emergence, 125 g ai/ha, preemergence, scale 0 (no effect) to 100 (complete control), read-out: Ryegrass, Italian plant response rating) | pest or weed control at 125 g/ha ([11]; Ambrosia artemisiifolia, pre-emergence, 125 g ai/ha, preemergence, scale 0 (no effect) to 100 (complete control), read-out: Ragweed plant response rating) | plant injury at 62 g/ha ([12]; Triticum aestivum, pre-emergence, 62 g ai/ha, preemergence, scale 0 (no effect) to 100 (complete control), read-out: Wheat plant response rating)
75%: pest or weed control at 250 g/ha ([5]; Sorghum halepense, pre-emergence, 250 g ai/ha, preemergence, scale 0 (no effect) to 100 (complete control), read-out: Johnsongrass plant response rating) | pest or weed control at 250 g/ha ([10]; Cyperus difformis, read-out: Plant response rating, Sedge, Umbrella)
85%: pest or weed control at 250 g/ha ([4]; Alopecurus myosuroides, pre-emergence, 250 g ai/ha, preemergence, scale 0 (no effect) to 100 (complete control), read-out: Blackgrass plant response rating)
80%: pest or weed control at 250 g/ha ([7]; Heteranthera limosa, read-out: Plant response rating, Ducksalad)
40%: pest or weed control at 250 g/ha ([8]; Lolium multiflorum, pre-emergence, 250 g ai/ha, preemergence, scale 0 (no effect) to 100 (complete control), read-out: Ryegrass, Italian plant response rating) | pest or weed control at 250 g/ha ([11]; Ambrosia artemisiifolia, pre-emergence, 250 g ai/ha, preemergence, scale 0 (no effect) to 100 (complete control), read-out: Ragweed plant response rating) | plant injury at 250 g/ha ([12]; Triticum aestivum, pre-emergence, 250 g ai/ha, preemergence, scale 0 (no effect) to 100 (complete control), read-out: Wheat plant response rating) | pest or weed control at 31 g/ha ([15]; Abutilon theophrasti, pre-emergence, Preemergence, 31 g ai/ha, scale 0 to 100, 0 no effect, 100 complete control, read-out: Plant response rating, Velvetleaf)
70%: pest or weed control at 125 g/ha ([1]; Ipomoea, post-emergence, 240 h, 125 g ai/ha, 0 to 100 scale where 0 is no effect and 100 is complete control, read-out: Plant response rating, Morningglory) | pest or weed control at 500 g/ha ([9]; Ipomoea, pre-emergence, 240 h, 500 g ai/ha, 0 to 100 scale, 0 no effect, 100 complete control, approx. 10 days, read-out: Morningglory plant response rating)

FC(F)(F)c1cnn(-c2ccccc2Oc2ncc(Cl)cn2)c1 [Compound 16]
98: Plant response rating, Pigweed ([6]; Postemergence, 62 g ai/ha, scale 0 to 100 (0 no effect, 100 complete control)) | Plant response rating, Velvetleaf [15, 22]
90: Plant response rating, Morningglory [1, 16] | Blackgrass plant response rating [4, 19] | Blackgrass plant response rating [4, 20] | Blackgrass plant response rating [4, 21] | Plant response rating, Ducksalad [7] | Ryegrass, Italian plant response rating [8, 21] | Morningglory plant response rating [9, 18] | Plant response rating, Sedge, Umbrella [10]
20: Wheat plant response rating [3, 16]
25: Ragweed plant response rating [11, 19]
80: Plant response rating, Wheat [2, 17] | Plant response rating, Pigweed ([6]; Postemergence, 31 g ai/ha, scale 0 to 100 (0 no effect, 100 complete control), 13 to 15 days) | Ryegrass, Italian plant response rating [8, 20]
70: Plant response rating, Wheat [2, 16]
60: Wheat plant response rating [3, 18] | Ragweed plant response rating [11, 21] | Wheat plant response rating [12, 21]
0: Plant response rating, Johnsongrass [5, 22] | Plant response rating, Ryegrass, Italian [8, 22] | Plant response rating, Ragweed [11, 22] | Wheat plant response rating [12, 19] | Plant response rating, Wheat [12, 22]
55: Ragweed plant response rating [11, 20]
85: Plant response rating, Blackgrass [4, 22] | Johnsongrass plant response rating [5, 19]
100: Plant response rating, Morningglory [1, 17] | Johnsongrass plant response rating [5, 20] | Johnsongrass plant response rating [5, 21] | Plant response rating (0 to 100), Pigweed ([6]; 125 g ai/ha, postemergence) | Plant response rating (0 to 100), Pigweed ([6]; 250 g ai/ha, postemergence) | Plant response rating, Velvetleaf [13, 16] | Plant response rating, Velvetleaf [13, 17] | Velvetleaf plant response rating [14, 16] | Velvetleaf plant response rating [14, 18] | Velvetleaf plant response rating [15, 19] | Velvetleaf plant response rating [15, 20] | Velvetleaf plant response rating [15, 21]
30: Ryegrass, Italian plant response rating [8, 19] | Morningglory plant response rating [9, 16]
35: Wheat plant response rating [12, 20]
